Laboratory results reported in patent US9686993B2 (priority 2005, dated 2017).
Like-named read-outs stand apart in the source and are kept apart here.

Assays:
[1] = system: Fusarium graminearum, Fusarium culmorum, or Fusarium avenaceum (mycotoxin production, DON); details: in vivo
[2] = system: wheat scab (Fusarium graminearum, Fusarium culmorum, or Fusarium avenaceum); format: in vivo; details: for Medicinal Benefit Control Value: relative to no treatment; for Medicinal Benefit (number of infected berries in 1000 berries): sprayed once at GSs 65 to 71, no treatment 203

SMILES: COC(=O)NC(=S)Nc1ccccc1NC(=S)NC(=O)OC [Cercobin M, thiophanate-methyl]
- amount of mycotoxin production (DON concentration), result in words [1]: inhibited in a dose-dependent manner
- Medicinal Benefit Control Value ([2]; 250 g ai/ha): 6.4%
- Medicinal Benefit (number of infected berries in 1000 berries) ([2]; 250 g ai/ha): 190
- medicinal benefit (number of infected berries in 1000 berries), result in words ([2]; 250 to 500 g ai/ha (combination 500 + 120 g ai/ha), versus no treatment): almost no difference
- Medicinal Benefit Control Value ([2]; 375 g ai/ha): 7.4%
- Medicinal Benefit (number of infected berries in 1000 berries) ([2]; 375 g ai/ha): 218
- Medicinal Benefit Control Value ([2]; 500 g ai/ha): 11.3%
- Medicinal Benefit (number of infected berries in 1000 berries) ([2]; 500 g ai/ha): 180
